How the values were obtained:
[1] = Solubility of Trifluralin in methacrylate plasticizer/monomers; type: physicochemical; conditions: in ethyl methacrylate and lauryl methacrylate
Experimental: A novel solution involving the polymerization of the plasticizer that remains within the fiber (FIG. 8) has been developed. Thus, a plasticizer is chosen that also is a monomer. It was determined that Trifluralin is quite soluble in ethyl methacrylate and lauryl methacrylate. […] Thus, technical feasibility is evident up to this point in the process.

plant root = conditions: cited from earlier work

## CCCN(CCC)c1c([N+](=O)[O-])cc(C(F)(F)F)cc1[N+](=O)[O-] [Trifluralin]
[1]
  solubility: quite soluble
Plant root; 95% of the plants tested, prior efforts
  concentration highly effective in preventing root elongation: 2–5 ppm
Plant root; a few of the plants tested, prior efforts
  concentration required to inhibit root growth: 10 ppm
Plant root; in gels and water-saturated soils adjacent to a pipe leakage area
  concentration sufficient to inhibit root growth: 5–10 ppm

Reference: US7012042B1, “Methods and products to protect against root intrusion and plant and root growth” (Growguard, LLC, Inc., priority 2002, dated 2006)
